Experiment [1] deals with PA1 (ECACC, 90013101) cells. The experiment in a line: Cell viability assay (Cell Titre Glo, 72 hours) in PA1 cells. It is filed as cell-based. The note with it: Homo sapiens, PA-1. The protocol:
(§1) Example 31: Cell Viability Assays
(§2) Phthalazinone based modulators as described herein were dispensed into 384 well CulturPlates™ (PerkinElmer) using Echo 555 acoustic dispensing in 10-point dose response curves at a final top concentration of 30 μM following a 1 in 3 dilution series. A2058 (ATCC, CRL-11147) or PA1 (ECACC, 90013101) cells were added directly to a compound at a density of 5000 cells per well in a final volume of 50 μL and incubated for 72 hours at 37° C., 5% CO2. Viability was assessed using Cell Titre Glo® (Promega) according to the manufacturer's instructions (25 μL per well) and IC50 curves were generated for each inhibitor using IDBS ActivityBase data analysis software.

The subject of experiment [2] is A2058 (ATCC, CRL-11147) cells. Kind of experiment: Cell viability assay (Cell Titre Glo, 72 hours) in A2058 cells. It is filed as cell-based. The note with it: Homo sapiens. As for the experimental part:
as §1, §2

On to `Cc1ccc(C#N)cc1N1CCN(C(=O)c2nn(C)c(=O)c3ccc(F)cc23)CC1` [Compound 211], for which the IC50 in experiment [1] and in experiment [2] was ≤ 1000 nM in each case.

`Cn1nc(C(=O)N2CCN(c3cc(F)cc(OC(F)F)c3)CC2)c2ccccc2c1=O` [Compound 198]: the IC50 in experiment [1] and in experiment [2] was ≤ 1000 nM in each case.

Consider `Cc1cc(C)cc(N2CCN(C(=O)c3nn(C)c(=O)c4ccccc34)CC2)c1` [Compound 205], for which the IC50 in experiment [1] and in experiment [2] was ≤ 1000 nM in each case.

With `CCn1nc(C(=O)N2CCN(c3cccc4c3OCC4)CC2)c2ccccc2c1=O` [Compound 126], the IC50 in experiment [1] and in experiment [2] was ≤ 1000 nM throughout.

Regarding `CCn1nc(C(=O)N2CCN(c3cccc(F)n3)CC2)c2ccccc2c1=O` [Compound 82], the IC50 (in general, the concentration that inhibits the measured activity by half) in experiment [1] is 10000 to 20000 nM; in experiment [2], > 20000 nM.

Consider `CCOc1cc(F)ccc1N1CCN(C(=O)c2nn(CC)c(=O)c3ccccc23)CC1` [Compound 148], for which the IC50 in experiment [1] and in experiment [2] was ≤ 1000 nM in each case.

Regarding `CCn1nc(C(=O)N2CCN(c3cc(F)c(F)cc3OC)CC2)c2ccccc2c1=O` [Compound 144], the IC50 in experiment [1] and in experiment [2] was ≤ 1000 nM each time.

Regarding `CCn1nc(C(=O)N2CCN(c3cc(F)cc(F)c3)CC2)c2ccccc2c1=O` [Compound 142], the half-maximal inhibitory concentration (IC50) in experiment [1] and in experiment [2] was ≤ 1000 nM in each case.

In the case of `CCn1nc(C(=O)N2CCN(c3cc(Cl)cc(C#N)c3)CC2)c2cc(F)ccc2c1=O` [Compound 237], the IC50 in experiment [1] and in experiment [2] was ≤ 1000 nM each time.

As to `CCn1nc(C(=O)N2CCN(c3ncncc3C)CC2)c2ccccc2c1=O` [Compound 113], the IC50 in experiment [1] and in experiment [2] was > 20000 nM throughout.

Turning to `Cn1nc(C(=O)N2CCN(c3nccc4sccc34)CC2)c2ccccc2c1=O` [Compound 194], the IC50 in experiment [1] lay within 1000 to 10000 nM; in experiment [2] it was 10000 to 20000 nM.

Regarding `COc1cccc(N2CCN(C(=O)c3nn(C)c(=O)c4ccccc34)CC2)c1` [Compound 50], the 50% inhibitory concentration (IC50) in experiment [1] and in experiment [2] was ≤ 1000 nM each time.

On to `Cc1cncc(N2CCN(C(=O)c3nn(C)c(=O)c4ccc(F)cc34)CC2)c1C` [Compound 208], for which the IC50 was ≤ 1000 nM in experiment [1] and 1000 to 10000 nM in experiment [2].

In the case of `Cc1cc(C#N)cc(N2CCN(C(=O)c3nn(C)c(=O)c4ccc(F)cc34)CC2)c1` [Compound 235], the IC50 in experiment [1] and in experiment [2] was ≤ 1000 nM throughout.

For `Cn1nc(C(=O)N2CCN(c3cncc(C#N)c3)CC2)c2cc(F)ccc2c1=O` [Compound 234, 5-(4-(7-fluoro-3-methyl-4-oxo-3,4-dihydrophthalazine-1-carbonyl)piperazin-1-yl)nicotinonitrile], the IC50 in experiment [1] and in experiment [2] was > 20000 nM in each case.

As to `COc1ccc(C2(C)CCN(C(=O)c3nn(C)c(=O)c4ccccc34)CC2)cc1` [Compound 248, 4-(4-(4-methoxyphenyl)-4-methylpiperidine-1-carbonyl)-2-methylphthalazin-1(2H)-one], the IC50 in experiment [1] was in the range of 10000 to 20000 nM; in experiment [2] it was 1000 to 10000 nM.

With `Cn1nc(C(=O)N2CCN(c3cc(C#N)cc(C(F)F)c3)CC2)c2ccccc2c1=O` [Compound 201], the IC50 in experiment [1] and in experiment [2] was ≤ 1000 nM in each case.

`Cn1nc(C(=O)N2CCN(c3ccnc4cnn(C)c34)CC2)c2ccccc2c1=O` [Compound 193]: the IC50 in experiment [1] and in experiment [2] was > 20000 nM throughout.

Turning to `Cn1nc(C(=O)N2CCN(c3cc(C#N)ccc3Cl)CC2)c2ccccc2c1=O` [Compound 229, 4-chloro-3-(4-(3-methyl-4-oxo-3,4-dihydrophthalazine-1-carbonyl)piperazin-1-yl)benzonitrile], the IC50 in experiment [1] and in experiment [2] was ≤ 1000 nM each time.

Regarding `COc1cc(F)cc(N2CCN(C(=O)c3nn(C)c(=O)c4ccccc34)CC2)c1` [Compound 34, 4-(4-(3-fluoro-5-methoxyphenyl)piperazine-1-carbonyl)-2-methylphthalazin-1(2H)-one], the IC50 in experiment [1] and in experiment [2] was ≤ 1000 nM each time.

With `COc1cc(C)cc(N2CCN(C(=O)c3nn(C)c(=O)c4ccncc34)CC2)c1` [Compound 217], the IC50 in experiment [1] and in experiment [2] was ≤ 1000 nM throughout.

`COc1ccncc1N1CCN(C(=O)c2nn(C)c(=O)c3ccccc23)CC1` [Compound 37]: the IC50 in experiment [1] and in experiment [2] was ≤ 1000 nM each time.

In the case of `CCn1nc(C(=O)N2CCN(c3nnccc3OC)CC2)c2ccccc2c1=O` [Compound 94], the IC50 fell in the range of 1000 to 10000 nM in experiment [1] and 10000 to 20000 nM in experiment [2].

Turning to `CCn1nc(C(=O)N2CCN(c3ncccc3F)CC2)c2ccccc2c1=O` [Compound 107], the IC50 in experiment [1] and in experiment [2] was > 20000 nM in each case.

Regarding `Cn1nc(C(=O)N2CCN(c3cc(Cl)cc(C#N)c3)CC2)c2ccccc2c1=O` [Compound 225], the IC50 in experiment [1] and in experiment [2] was ≤ 1000 nM in each case.

Turning to `COc1ccnc(N2CCN(C(=O)c3nn(C)c(=O)c4ccccc34)CC2)n1` [Compound 72], the IC50 in experiment [1] and in experiment [2] was 1000 to 10000 nM each time.

On to `CCn1nc(C(=O)N2CCN(c3ccnc4ccoc34)CC2)c2ccccc2c1=O` [Compound 95], for which the IC50 in experiment [1] and in experiment [2] was ≤ 1000 nM each time.

Take `CC(C)c1cncc(N2CCN(C(=O)c3nn(C)c(=O)c4ccccc34)CC2)c1` [Compound 204]: the IC50 in experiment [1] and in experiment [2] was > 20000 nM throughout.

Regarding `Cn1nc(C(=O)N2CCN(c3ccc4nccn4c3)CC2)c2ccccc2c1=O` [Compound 202], the IC50 in experiment [1] and in experiment [2] was > 20000 nM throughout.

In the case of `Cn1nc(C(=O)N2CCN(c3ncc(F)cc3C3CC3)CC2)c2ccccc2c1=O` [Compound 19], the results for the IC50 in experiment [1] and in experiment [2] were ≤ 1000 nM and 1000 to 10000 nM, respectively.

Regarding `COc1ccncc1N1CCN(C(=O)c2nn(C)c(=O)c3ccc(Cl)cc23)CC1` [Compound 246, 6-chloro-4-(4-(4-methoxypyridin-3-yl)piperazine-1-carbonyl)-2-methylphthalazin-1(2H)-one], the IC50 in experiment [1] is ≤ 1000 nM; in experiment [2], 1000 to 10000 nM.

On to `CCn1nc(C(=O)N2CCN(c3cc(C)ccn3)CC2)c2ccccc2c1=O` [Compound 110], for which the IC50 in experiment [1] and in experiment [2] was 1000 to 10000 nM each time.

Take `Cn1nc(C(=O)N2CCN(c3cccc(S(C)(=O)=O)c3)CC2)c2ccccc2c1=O` [Compound 69]: the IC50 in experiment [1] and in experiment [2] was 1000 to 10000 nM throughout.

Regarding `CCn1nc(C(=O)N2CCN(c3ncc(C)cc3F)CC2)c2ccccc2c1=O` [Compound 139], the IC50 in experiment [1] and in experiment [2] was > 20000 nM in each case.

`CCn1nc(C(=O)N2CCN(c3ccc(OC)nn3)CC2)c2ccccc2c1=O` [Compound 111]: the IC50 in experiment [1] and in experiment [2] was > 20000 nM in each case.

Consider `CCn1nc(C(=O)N2CCN(c3ncc(F)cc3C(F)(F)F)CC2)c2ccccc2c1=O` [Compound 140], for which the IC50 in experiment [1] and in experiment [2] was 1000 to 10000 nM each time.

Take `COc1cccc(N2CCN(C(=O)c3nn(C)c(=O)c4cnccc34)CC2)c1` [Compound 172, 1-(4-(3-methoxyphenyl)piperazine-1-carbonyl)-3-methylpyrido[3,4-d]pyridazin-4(3H)-one]: the IC50 in experiment [1] and in experiment [2] was 1000 to 10000 nM in each case.

On to `Cn1nc(C(=O)N2CCN(c3cccnc3)CC2)c2ccccc2c1=O` [Compound 32], for which the 50% inhibitory concentration (IC50) in experiment [1] and in experiment [2] was > 20000 nM in each case.

For the molecule `COc1ncc(Cl)cc1N1CCN(C(=O)c2nn(C)c(=O)c3ccccc23)CC1` [Compound 23], the IC50 in experiment [1] and in experiment [2] was ≤ 1000 nM in each case.

For `Cn1nc(C(=O)N2CCN(c3cccc(F)c3)CC2)c2ccccc2c1=O` [Compound 33], the IC50 in experiment [1] and in experiment [2] was ≤ 1000 nM throughout.

For `COc1cc(F)cc(N2CCN(C(=O)c3nn(C)c(=O)c4ccncc34)CC2)c1` [Compound 176], the IC50 in experiment [1] and in experiment [2] was ≤ 1000 nM in each case.

Consider `CCn1nc(C(=O)N2CCN(c3c(C)cccc3OC)CC2)c2ccccc2c1=O` [Compound 154], for which the IC50 in experiment [1] and in experiment [2] was 1000 to 10000 nM in each case.

`Cn1nc(C(=O)N2CCN(c3cccc4c3OC(F)(F)O4)CC2)c2ccccc2c1=O` [Compound 80]: the concentration for half-maximal inhibition (IC50) in experiment [1] and in experiment [2] was ≤ 1000 nM throughout.

For the molecule `CCn1nc(C(=O)N2CCN(c3ncc(F)cc3OC)CC2)c2ccccc2c1=O` [Compound 114], the IC50 was ≤ 1000 nM in experiment [1] and 1000 to 10000 nM in experiment [2].

With `Cn1nc(C(=O)N2CCN(c3ccc4c(c3)OCC4)CC2)c2ccccc2c1=O` [Compound 51], the IC50 is 10000 to 20000 nM in experiment [1] and > 20000 nM in experiment [2].

For `CCn1nc(C(=O)N2CCN(c3cccc(F)c3)CC2)c2ccccc2c1=O` [Compound 146], the IC50 in experiment [1] and in experiment [2] was ≤ 1000 nM each time.

Regarding `Cn1nc(C(=O)N2CCN(c3cc(C#N)ccc3C3CC3)CC2)c2ccccc2c1=O` [Compound 62], the IC50 in experiment [1] and in experiment [2] was ≤ 1000 nM throughout.

For the molecule `Cn1nc(C(=O)N2CCN(c3cc(F)cc(C#N)c3)CC2)c2cc(F)ccc2c1=O` [Compound 212], the IC50 in experiment [1] and in experiment [2] was ≤ 1000 nM each time.

For the molecule `CCn1nc(C(=O)N2CCN(c3cccc(F)c3OC)CC2)c2ccccc2c1=O` [Compound 138], the IC50 in experiment [1] and in experiment [2] was ≤ 1000 nM in each case.

As for `COc1cccc(N2CCN(C(=O)c3nn(C)c(=O)c4ccncc34)CC2)c1` [Compound 173, 4-(4-(3-methoxyphenyl)piperazine-1-carbonyl)-2-methylpyrido[3,4-d]pyridazin-1(2H)-one], the results for the IC50 in experiment [1] and in experiment [2] were ≤ 1000 nM and 1000 to 10000 nM, respectively.

As to `CCn1nc(C(=O)N2CCN(c3ccccc3C)CC2)c2ccccc2c1=O` [Compound 102], the IC50 in experiment [1] and in experiment [2] was ≤ 1000 nM in each case.

Values taken from US12465603B2, “Phthalazinone based modulators for the treatment of disease” (Soley Therapeutics, Inc., priority 2022, dated 2025).
